In data set [1] the target is T1, Constitutive androstane receptor CAR, NR1I3 (h) (Homo sapiens, UniProt Q14994).
T1 sequence (Q14994 1-352): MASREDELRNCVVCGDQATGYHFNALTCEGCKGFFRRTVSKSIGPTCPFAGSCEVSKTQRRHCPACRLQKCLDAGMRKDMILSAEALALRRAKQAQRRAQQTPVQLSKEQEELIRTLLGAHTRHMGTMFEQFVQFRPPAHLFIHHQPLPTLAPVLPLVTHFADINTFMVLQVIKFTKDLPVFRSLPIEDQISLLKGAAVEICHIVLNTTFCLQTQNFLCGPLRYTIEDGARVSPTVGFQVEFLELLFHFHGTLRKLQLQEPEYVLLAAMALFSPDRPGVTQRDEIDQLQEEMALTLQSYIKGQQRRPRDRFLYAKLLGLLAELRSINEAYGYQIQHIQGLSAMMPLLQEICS
The format is biochemical.

Data set [2] has as its target Androgen receptor, AR (h) (Homo sapiens, UniProt P10275). To be noted: IPP screening at 10 uM; control testosterone.
The subject of the next data set is human. To be noted: human studies; ref [15-18]; cited from earlier work.
The conditions of data set [3]: PBK level L2; taken or scaled from references (median where several); ref [6],[7],[10],[19]; cited from earlier work.
The conditions of data set [4]: ref [15-18]; cited from earlier work.
The subject of another data set is CYP2B6. To be noted: PBK level L3, Intrinsic Liver Clearance, ref [12], cited from earlier work.
Another data set concerns CYP2C19. To be noted: PBK level L3, Intrinsic Liver Clearance, ref [12], cited from earlier work.
The target of data set [5] is T2, Retinoic Acid Receptor gamma, RARG (h) (Homo sapiens, UniProt P13631).
T2 construct: purchased Eurofins Cerep (SafetyScreen44-based IPP panel)
T2 sequence (P13631 whole entry): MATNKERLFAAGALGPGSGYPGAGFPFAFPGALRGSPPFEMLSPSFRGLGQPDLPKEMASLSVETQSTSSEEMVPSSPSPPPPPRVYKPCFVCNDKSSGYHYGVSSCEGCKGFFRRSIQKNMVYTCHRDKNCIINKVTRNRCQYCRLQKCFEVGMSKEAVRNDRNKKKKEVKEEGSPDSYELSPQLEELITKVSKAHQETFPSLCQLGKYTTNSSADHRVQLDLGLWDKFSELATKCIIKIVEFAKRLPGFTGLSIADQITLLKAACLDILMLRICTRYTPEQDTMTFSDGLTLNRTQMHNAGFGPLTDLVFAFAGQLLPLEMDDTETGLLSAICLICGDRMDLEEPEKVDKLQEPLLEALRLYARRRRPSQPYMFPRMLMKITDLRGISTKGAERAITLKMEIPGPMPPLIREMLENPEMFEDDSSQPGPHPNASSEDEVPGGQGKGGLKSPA
The data set is described as follows: IPP RARG binding (assay unavailable by end of study). To be noted: 10 uM; ligand/control 9-cis-Retinoic acid; ** assay was unavailable by the end of the study.

For data set [6], the target named is T3, Estrogen receptor beta, ESR2 (h) (Homo sapiens, UniProt Q92731).
T3 construct: purchased Eurofins Cerep (SafetyScreen44-based IPP panel)
T3 sequence (Q92731 whole entry): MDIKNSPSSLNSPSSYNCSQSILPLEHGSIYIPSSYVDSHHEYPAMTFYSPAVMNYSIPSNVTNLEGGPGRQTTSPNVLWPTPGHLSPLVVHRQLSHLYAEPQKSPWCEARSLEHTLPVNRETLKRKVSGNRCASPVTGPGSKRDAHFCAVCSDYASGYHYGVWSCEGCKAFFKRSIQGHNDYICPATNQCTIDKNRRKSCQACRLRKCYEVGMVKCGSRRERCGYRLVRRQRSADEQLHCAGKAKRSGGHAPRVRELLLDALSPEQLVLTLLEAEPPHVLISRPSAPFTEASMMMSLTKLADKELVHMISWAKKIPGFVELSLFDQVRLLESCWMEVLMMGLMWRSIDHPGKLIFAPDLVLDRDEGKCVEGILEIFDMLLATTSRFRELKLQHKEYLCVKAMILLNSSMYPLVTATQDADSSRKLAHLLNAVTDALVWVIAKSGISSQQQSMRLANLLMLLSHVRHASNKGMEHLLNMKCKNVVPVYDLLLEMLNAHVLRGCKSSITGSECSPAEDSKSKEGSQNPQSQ
The data set is described as follows: IPP ESR2 coactivator recruitment (agonist). The settings on record: 100 uM, estriol, * denotes assay interference (2-Amino-6-chloro-4-nitrophenol, HC Red 3). The data set is classed as biochemical.

In data set [7] the target is T3, Estrogen receptor beta, ESR2 (h). The data set is described as follows: IPP ESR2 coactivator recruitment (antagonist). The settings on record: 100 uM, estriol, * denotes assay interference (2-Amino-6-chloro-4-nitrophenol, HC Red 3). The data set is classed as biochemical.
Data set [8] in a line: PBK model plasma Cmax estimate (Gastroplus 9.8; levels L1, L2, L3). The settings on record: therapeutic uses. Also noted: species or system human.
Data set [9] in a line: intestinal absorption (PBK input). The data set is classed as in vitro ADME. To be noted: levels L2/L3, converted from [38].
The conditions of data set [10]: PBK input, levels L2/L3; ref [4]; cited from earlier work.
Data set [11] can be described thus: hepatic intrinsic clearance (Clint). To be noted: PBK input.
The target of data set [12] is T4, Vitamin D3 receptor, VDR (h) (Homo sapiens, UniProt P11473). The data set is classed as biochemical. The settings on record: 10 uM; agonist; calcitriol for control.
T4 sequence (P11473 whole entry): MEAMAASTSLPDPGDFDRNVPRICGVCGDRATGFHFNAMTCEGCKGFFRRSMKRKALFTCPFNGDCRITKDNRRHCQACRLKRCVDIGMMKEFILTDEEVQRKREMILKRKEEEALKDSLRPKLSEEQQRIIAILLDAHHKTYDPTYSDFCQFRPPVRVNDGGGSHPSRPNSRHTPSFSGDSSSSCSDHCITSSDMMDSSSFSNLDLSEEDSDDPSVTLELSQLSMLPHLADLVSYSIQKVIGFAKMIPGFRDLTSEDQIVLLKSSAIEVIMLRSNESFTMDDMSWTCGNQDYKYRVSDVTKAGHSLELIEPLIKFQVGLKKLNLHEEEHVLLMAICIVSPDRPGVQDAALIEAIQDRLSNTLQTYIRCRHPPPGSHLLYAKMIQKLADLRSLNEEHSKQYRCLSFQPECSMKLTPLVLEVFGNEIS
The target of data set [13] is T4, Vitamin D3 receptor, VDR (h). The data set is classed as biochemical. To be noted: 10 uM; antagonist; ligand calcitriol.

Like-named read-outs stand apart in the source and are kept apart here.

Sequence of Androgen receptor, AR (h) (P10275 whole entry): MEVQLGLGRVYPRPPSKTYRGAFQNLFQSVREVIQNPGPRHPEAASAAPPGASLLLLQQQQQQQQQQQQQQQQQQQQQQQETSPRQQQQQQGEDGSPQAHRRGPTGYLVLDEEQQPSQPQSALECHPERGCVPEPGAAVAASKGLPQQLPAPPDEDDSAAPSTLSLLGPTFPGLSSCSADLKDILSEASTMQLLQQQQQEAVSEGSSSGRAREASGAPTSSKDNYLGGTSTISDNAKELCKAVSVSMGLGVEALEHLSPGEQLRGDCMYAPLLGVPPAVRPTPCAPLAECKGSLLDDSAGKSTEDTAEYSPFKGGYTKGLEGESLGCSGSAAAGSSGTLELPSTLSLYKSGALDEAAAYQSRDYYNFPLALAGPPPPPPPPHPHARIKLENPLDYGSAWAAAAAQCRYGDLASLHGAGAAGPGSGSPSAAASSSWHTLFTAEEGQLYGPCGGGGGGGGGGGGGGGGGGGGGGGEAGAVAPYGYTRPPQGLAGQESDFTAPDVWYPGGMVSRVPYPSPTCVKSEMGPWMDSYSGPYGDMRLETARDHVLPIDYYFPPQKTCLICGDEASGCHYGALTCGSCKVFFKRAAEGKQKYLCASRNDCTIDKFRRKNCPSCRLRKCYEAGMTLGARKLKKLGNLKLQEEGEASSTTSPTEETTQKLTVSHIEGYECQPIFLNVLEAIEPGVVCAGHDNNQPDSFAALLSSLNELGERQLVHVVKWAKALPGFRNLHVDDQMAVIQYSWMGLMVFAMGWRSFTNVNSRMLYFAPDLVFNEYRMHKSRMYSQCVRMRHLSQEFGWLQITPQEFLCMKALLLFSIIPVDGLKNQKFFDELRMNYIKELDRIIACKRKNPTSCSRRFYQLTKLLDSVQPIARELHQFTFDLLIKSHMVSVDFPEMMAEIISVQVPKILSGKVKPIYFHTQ

Consider `CCOP(=S)(OCC)Oc1nc(Cl)c(Cl)cc1Cl` [Chlorpyrifos, O,O-Diethyl O-(3,5,6-trichloropyridin-2-yl) phosphorothioate], for which, in data set [1], the “IPP screening %, Coactivator recruitment” value is on record as -5.1%. The compound further had a Specific binding in data set [2] of 5.8%. The NOAEL (as a rule, the highest dose or exposure tested at which no adverse effect was seen) with human is given as 0.1 mg/kg bw/day. In addition, the “Intrinsic Liver Clearance” value in data set [3] is recorded as 131.95 L/h. Moreover, the oral reference dose in [4] is 0.01 mg/kg bw/day. The “Vmax CYP2B6 (CPFO)” value in the data set on CYP2B6 is reported as 418 uL/min/nmol CYP. For the same compound, the Km – broadly, the concentration of substrate that gives half-maximal velocity – in the data set on CYP2B6 (read-out: km CYP2B6 (CPFO)) was 0.12 µM; in the data set with CYP2C19 (read-out: km CYP2C19 (TCP)) it was 1.09 µM. Further, the “Vmax CYP2C19 (TCP)” value in the data set on CYP2C19 is recorded as 2296 uL/min/mol CYP.

Turning to `CC(C)(C)c1ccc(CCOc2ncnc3ccccc23)cc1` [Fenazaquin, 4-[2-(4-tert-Butylphenyl)ethoxy]quinazoline], the “IPP screening %, Specific binding” value in data set [5] was 35.0%.

`CC1(C)O[C@@H]2[C@@H](CO[C@@]3(COS(N)(=O)=O)OC(C)(C)O[C@@H]23)O1` [Topiramate, [(3aS,5aR,8aR,8bS)-2,2,7,7-Tetramethyltetrahydro-2H,3aH,7H-bis[1,3]dioxolo[4,5-b:4',5'-d]pyran-3a-yl]methyl sulfamate (non-preferred name)]: the “IPP screening %, Coactivator recruitment” value in data set [6] is -2.0%; in data set [7], -10.0%. Also, in data set [8], the “underprediction of the L3 result at L2 (Cmax)” value is recorded as ≥ 5 fold. The Peff in [9] stood at 3.75 cm/s x E-04. In addition, the Fup in [10] is reported as 79.5%. The “Intrinsic Liver Clearance” value in data set [11] (level L2, scaled from [6] internal data (unpublished)) came out at 15.02 L/h; in [11] (level L3, optimised based on [39]), 0.874 L/h.

In the case of “mixture of 2- and 3-tert-butyl-4-methoxyphenol [Butylated Hydroxyanisole]”, the results for the “IPP screening %, Coactivator recruitment” value in data set [12] and in [13] were -0.1% and 3.0%, respectively.

The values are drawn from paper PMC11879040, “Advancing systemic toxicity risk assessment: Evaluation of a NAM-based toolbox approach” (Toxicological Sciences, 2024).
